The values that follow come from patent US20250041434A1, “CEA ASSAY FOR PATIENT SELECTION IN CANCER THERAPY” (SANOFI, priority 2021, published 2025).

This data set deals with cancer cells. Kind of data set: cytotoxic activity of ADC metabolites. The data set is classed as cell-based. Particulars: through binding to tubulin and inhibition of microtubule polymerization.

Molecules are shown by their SMILES.

Take `COc1cc2cc(c1Cl)N(C)C(=O)CC(OC(=O)C(C)N(C)C(=O)CCC(C)(C)SC)C1(C)OC1C(C)C1CC(O)(NC(=O)O1)C(OC)C=CC=C(C)C2` (centres unmarked) [Me-DM4]: the cytotoxic activity entry is “potent cytotoxic activity”. Then `COc1cc2cc(c1Cl)N(C)C(=O)CC(OC(=O)C(C)N(C)C(=O)CCC(C)(C)S)C1(C)OC1C(C)C1CC(O)(NC(=O)O1)C(OC)/C=C/C=C(\C)C2` (centres unmarked) [DM4, N2′-deacetyl-N-2′(4-methyl-4-mercapto-1-oxopentyl)-maytansine], with “potent cytotoxic activity”.
